From PubChem BioAssay (NCI)
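Dose response: 5 concentrations. Exposure: 48 h. Format: 96-well plates. Endpoint: linear interpolation; highest concentration if not reached. The concentration for full growth arrest is given as TGI.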

What was measured:
Assay in all cases: NCI-60 cell line screen, 48 h
[1] = test system: RXF 393 renal
[2] = test system: UACC-62 melanoma
[3] = test system: M14 melanoma
[4] = test system: HL-60(TB) leukemia
[5] = test system: TK-10 renal
[6] = test system: OVCAR-4 ovarian
[7] = test system: HOP-92 NSCLC
[8] = test system: BT-549 breast
[9] = test system: SNB-19 CNS
[10] = test system: HT29 colon
[11] = test system: MDA-MB-435
[12] = test system: T-47D breast
[13] = test system: A549 NSCLC
[14] = test system: SN12C renal
[15] = test system: SK-MEL-28 melanoma
[16] = test system: NCI-H522 lung
[17] = test system: RPMI-8226 leukemia
[18] = test system: SK-MEL-5 melanoma
[19] = test system: IGROV1 ovarian
[20] = test system: MDA-MB-231 breast
[21] = test system: OVCAR-5 ovarian
[22] = test system: ACHN renal
[23] = test system: HCC-2998 colon
[24] = test system: LOX IMVI melanoma
[25] = test system: KM12 colon
[26] = test system: CCRF-CEM leukemia
[27] = test system: NCI-H23 lung
[28] = test system: HS 578T breast
[29] = test system: HOP-62 NSCLC
[30] = test system: SW-620 colon
[31] = test system: SR leukemia
[32] = test system: SK-OV-3 ovarian
[33] = test system: HCT-15 colon
[34] = test system: HCT-116 colon
[35] = test system: NCI-H226 lung
[36] = test system: K-562 leukemia
[37] = test system: SF-295 CNS
[38] = test system: 786-0 renal
[39] = test system: OVCAR-3 ovarian
[40] = test system: MDA-N
[41] = test system: COLO 205 colon
[42] = test system: MCF7 breast
[43] = test system: SF-539 CNS
[44] = test system: MALME-3M melanoma
[45] = test system: NCI-H460 lung
[46] = test system: OVCAR-8 ovarian
[47] = test system: NCI/ADR-RES ovarian
[48] = test system: MOLT-4 leukemia
[49] = test system: DU-145 prostate
[50] = test system: PC-3 prostate
[51] = test system: SF-268 CNS
[52] = test system: CAKI-1 renal
[53] = test system: U251 CNS
[54] = test system: A498 renal
[55] = test system: UO-31 renal
[56] = test system: EKVX NSCLC
[57] = test system: UACC-257 melanoma
[58] = test system: SK-MEL-2 melanoma
[59] = test system: SNB-75 CNS

Compound: C=C1C(=O)OC2CC(C)C(C(O)CC(C)O)=CCC12 (configuration not stated)
- TGI [1]: 30.5 µM
- TGI [2]: 44.2 µM
- TGI [3]: 35 µM
- TGI [4]: 13.5 µM
- TGI [5]: 23.3 µM
- TGI [6]: 42.2 µM
- TGI [7]: 27.8 µM
- TGI [8]: 30.2 µM
- TGI [9]: > 100 µM
- TGI [10]: 35.7 µM
- TGI [11]: > 59.2 µM
- TGI [12]: 23.6 µM
- TGI [13]: > 80.6 µM
- TGI [14]: 33.1 µM
- TGI [15]: 23.1 µM
- TGI [16]: 3.29 µM
- TGI [17]: 34.2 µM
- TGI [18]: 41.2 µM
- TGI [19]: 43.4 µM
- TGI [20]: 33.8 µM
- TGI [21]: 30.7 µM
- TGI [22]: 8.95 µM
- TGI [23]: 33.2 µM
- TGI [24]: 25.7 µM
- TGI [25]: 46.4 µM
- TGI [26]: 14.3 µM
- TGI [27]: 33.3 µM
- TGI [28]: 62 µM
- TGI [29]: > 74.3 µM
- TGI [30]: 37.6 µM
- TGI [31]: 29.5 µM
- TGI [32]: > 100 µM
- TGI [33]: 41.4 µM
- TGI [34]: 21.9 µM
- TGI [35]: 72.7 µM
- TGI [36]: 37.1 µM
- TGI [37]: > 100 µM
- TGI [38]: 30.2 µM
- TGI [39]: 25.2 µM
- TGI [40]: 42.3 µM
- TGI [41]: 24.6 µM
- TGI [42]: 28.1 µM
- TGI [43]: 31.3 µM
- TGI [44]: 21.9 µM
- TGI [45]: 46.6 µM
- TGI [46]: 43.8 µM
- TGI [47]: 41 µM
- TGI [48]: 32.6 µM
- TGI [49]: 30.4 µM
- TGI [50]: 57 µM
- TGI [51]: 36.4 µM
- TGI [52]: 9.26 µM
- TGI [53]: 39.4 µM
- TGI [54]: 32.1 µM
- TGI [55]: 30.7 µM
- TGI [56]: 28.6 µM
- TGI [57]: 29.8 µM
- TGI [58]: 38.5 µM
- TGI [59]: 47.2 µM

Compound: CC1OC(OC2C(OC(=O)[C@]34CCC(C)(C)C[C@H]3C3=CC[C@@H]5[C@@]6(C)CC[C@H](OC7OC(CO)C(O)C(O)C7OC7OC(CO)C(O)C(O)C7O)C(C)(C)[C@@H]6CC[C@@]5(C)[C@]3(C)CC4)OCC(O)C2O)C(O)C(OC2OCC(O)C(O)C2O)C1OC1OCC(O)C(OC2OCC(O)C(O)C2O)C1O (some centres not stated)
- TGI [1]: 55.5 µM
- TGI [2]: 30.2 µM
- TGI [3]: 6.3 µM
- TGI [4]: 10.8 µM
- TGI [5]: 29.8 µM
- TGI [6]: > 61.6 µM
- TGI [7]: 20.2 µM
- TGI [8]: 31.4 µM
- TGI [9]: 49.5 µM
- TGI [10]: 14.2 µM
- TGI [11]: 5.6 µM
- TGI [12]: 51.8 µM
- TGI [13]: 15 µM
- TGI [14]: 5.56 µM
- TGI [15]: 4.85 µM
- TGI [16]: 9.56 µM
- TGI [17]: 24 µM
- TGI [18]: 23.3 µM
- TGI [19]: > 67.4 µM
- TGI [20]: 26.9 µM
- TGI [21]: 23.5 µM
- TGI [22]: 25.9 µM
- TGI [23]: 4.38 µM
- TGI [24]: > 74.6 µM
- TGI [25]: 21.8 µM
- TGI [26]: > 100 µM
- TGI [27]: 25.1 µM
- TGI [28]: 50.9 µM
- TGI [29]: 29.6 µM
- TGI [30]: > 55.6 µM
- TGI [31]: 16.2 µM
- TGI [32]: > 69.5 µM
- TGI [33]: > 79.4 µM
- TGI [34]: > 100 µM
- TGI [35]: 24.7 µM
- TGI [36]: 23.2 µM
- TGI [37]: 21.4 µM
- TGI [38]: 62.6 µM
- TGI [39]: > 100 µM
- TGI [40]: 5.77 µM
- TGI [41]: 8.16 µM
- TGI [42]: 58.3 µM
- TGI [43]: > 100 µM
- TGI [44]: 18.3 µM
- TGI [45]: > 100 µM
- TGI [46]: > 83.2 µM
- TGI [47]: > 100 µM
- TGI [48]: 48.6 µM
- TGI [49]: 38.3 µM
- TGI [50]: 25.9 µM
- TGI [51]: 33.1 µM
- TGI [52]: 21.8 µM
- TGI [53]: > 56.8 µM
- TGI [54]: 5.11 µM
- TGI [55]: 4.98 µM
- TGI [56]: 17.1 µM
- TGI [57]: 13.9 µM
- TGI [58]: 24.1 µM
- TGI [59]: 40.8 µM

Compound: CC1(C)OC2C(O)C(CO)OC2(C(F)F)O1 (configuration not stated)
- TGI [1]: > 100 µM
- TGI [2]: > 100 µM
- TGI [3]: > 100 µM
- TGI [4]: > 100 µM
- TGI [5]: > 100 µM
- TGI [6]: > 100 µM
- TGI [7]: > 100 µM
- TGI [8]: > 100 µM
- TGI [9]: > 100 µM
- TGI [10]: > 100 µM
- TGI [11]: > 100 µM
- TGI [12]: > 100 µM
- TGI [13]: > 100 µM
- TGI [14]: > 100 µM
- TGI [15]: > 100 µM
- TGI [16]: > 100 µM
- TGI [17]: > 100 µM
- TGI [18]: > 100 µM
- TGI [19]: > 100 µM
- TGI [20]: > 100 µM
- TGI [21]: > 100 µM
- TGI [22]: > 100 µM
- TGI [23]: > 100 µM
- TGI [24]: > 100 µM
- TGI [25]: > 100 µM
- TGI [26]: > 100 µM
- TGI [27]: > 100 µM
- TGI [28]: > 100 µM
- TGI [29]: > 100 µM
- TGI [30]: > 100 µM
- TGI [31]: > 100 µM
- TGI [32]: > 100 µM
- TGI [33]: > 100 µM
- TGI [34]: > 100 µM
- TGI [35]: > 100 µM
- TGI [36]: > 100 µM
- TGI [37]: > 100 µM
- TGI [38]: > 100 µM
- TGI [39]: > 100 µM
- TGI [40]: > 100 µM
- TGI [41]: > 100 µM
- TGI [42]: > 100 µM
- TGI [43]: > 100 µM
- TGI [44]: > 100 µM
- TGI [45]: > 100 µM
- TGI [46]: > 100 µM
- TGI [47]: > 100 µM
- TGI [48]: > 100 µM
- TGI [49]: > 100 µM
- TGI [50]: > 100 µM
- TGI [51]: > 100 µM
- TGI [52]: > 100 µM
- TGI [53]: > 100 µM
- TGI [54]: > 100 µM
- TGI [55]: > 100 µM
- TGI [56]: > 100 µM
- TGI [57]: > 100 µM
- TGI [58]: > 100 µM
- TGI [59]: > 100 µM
